From US12503444B2, “Compound containing benzene ring and application thereof” (WUHAN LL SCIENCE AND TECHNOLOGY DEVELOPMENT CO., LTD., priority 2019, dated 2025)
Read-outs that look alike come from different tables or passages of the source.

How the values were obtained:
[1] = target: T1, hP2X4 (human purinergic P2X receptor subtype 4) (Homo sapiens, UniProt Q99571); test: FLIPR assay of intracellular calcium increase induced by activation of hP2X4 expressed in HEK293 cells (agonist BZ-ATP 2.5 μM); type: cell-based; details: HEK293 cells stably expressing hP2X4, FLIPR, read-out: P2X4 IC50
T1 sequence (Q99571 1-404 isoform Q99571-2): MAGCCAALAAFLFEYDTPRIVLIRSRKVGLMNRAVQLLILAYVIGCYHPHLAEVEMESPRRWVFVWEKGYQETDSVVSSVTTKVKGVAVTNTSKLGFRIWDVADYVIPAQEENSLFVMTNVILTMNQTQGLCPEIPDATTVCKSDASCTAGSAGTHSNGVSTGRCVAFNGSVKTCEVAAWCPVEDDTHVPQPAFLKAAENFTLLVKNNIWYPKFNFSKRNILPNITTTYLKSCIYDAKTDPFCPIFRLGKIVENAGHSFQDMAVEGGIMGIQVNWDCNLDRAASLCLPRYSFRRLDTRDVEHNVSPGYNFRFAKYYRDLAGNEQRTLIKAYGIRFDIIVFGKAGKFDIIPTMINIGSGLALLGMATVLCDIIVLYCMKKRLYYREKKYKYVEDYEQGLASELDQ
Procedure: The antagonist property of the compounds disclosed herein was determined using the FLIPR (fluorescence imaging plate reader) method, wherein the compounds are inhibitors for the intracellular calcium increase induced by activation of hP2X4 (human purinergic P2X receptor subtype 4, accession No. NM_001256796.2) expressed in HEK293 cells (human renal epithelial cell line, ATCC).
HEK293 cells stably expressing hP2X4 were cultured in DMEM high glucose medium containing 10% FBS (fetal bovine serum, Biosera, FB-1058/500), 1% penicillin-streptomycin (Gibco, 15140-122) and 1 mg/mL G418 (CABIOCHE, 345810) in a cell incubator (37° C., […]). Cells at 400,000 cells/mL were seeded into a 384-well plate (10,000 cells/well) 18-24 h prior to the FLIPR experiment and then incubated overnight in a cell incubator. On the day of the experiment, the medium was discarded and the cells were washed in an FLIPR buffer (0.3 mL of probenecid (Thermo, P36400), 0.6 mL of 1 M HEPES (Invitrogen, 15630080) and 29.1 mL of HBSS (Invitrogen, 14065056) per 30 mL of the buffer). Each well was added with 20 μL of 0.5× Calcium 6 fluorescent dye (Molecular Devices, R8190) and then the cells were subjected to dye-loading incubation at 37° C. for 1.5 h. Each well was added with 10 μL of respective test compound (dissolved in DMSO at a concentration of 10 mM and serially diluted with buffer) or vehicle and the mixture was equilibrated for 30 min at room temperature. The cell plate was then placed in the FLIPR for baseline fluorescence measurements (excitation at 485 nm and emission at 525-535 nm). An agonist (BZ-ATP (Sigma, B6396) at a final concentration of 2.5 μM) or a vehicle (ultrapure water) was then added at 10 μL/well, fluorescence values were measured for 2 min at 1-second intervals, and finally the output fluorescence counts were analyzed.

[2] = In vitro metabolic stability, liver microsome incubation (human); type: in vitro ADME; details: human, liver microsomes; 1 mg/mL liver microsome protein, 37° C.; read-out: T1/2 in human liver microsome min
Procedure: The in vitro metabolic stability of the compounds disclosed herein was determined through incubation of liver microsomes of various species. A proper amount of test compound was added into a liver microsome reaction system (1 mg/mL liver microsome protein, 25 U/mL glucose-6 phosphate dehydrogenase, 1 mM NADP, 6 mM D-glucose 6-phosphate and 5 mM MgCl2), and then the mixture was incubated in a water bath kettle at 37° C. to start the reaction. At each time point, 100 μL of the reaction system was added into a centrifuge tube containing 400 μL of internal standard working solution (containing a 200 ng/mL solution of dexamethasone, diclofenac, tolbutamide and labetalol in acetonitrile) precooled at 0° C. so as to stop the reaction, and the mixture was then centrifuged at 10,000 g for 10 min at 4° C. The supernatant was collected for LC-MS assay so as to obtain the values of in vitro metabolic half-life of the test compounds in liver microsomes of various species.

| Compound | IC50 ([1]; numeric values) [nM] | half-life [2] [h] | IC50 ([1]; class symbols) [nM] |
| --- | --- | --- | --- |
| Cn1cc2c(S(N)(=O)=O)cc(NC(=O)Cc3ccccc3Cl)cc2n1 [Compound 3-A, 2-(2-chlorophenyl)-N-(2-methyl-4-sulfamoyl-2H-indazol-6-yl)acetamide] | 4.9 | 106 | – |
| Cn1ncc2c(S(N)(=O)=O)cc(NC(=O)Cc3ccccc3Cl)cc21 [Compound 3-B, 2-(2-chlorophenyl)-N-(1-methyl-4-sulfamoyl-1H-indazol-6-yl)acetamide] | 6.3 | 2.58 | – |
| CC(C)Cn1cc2c(S(N)(=O)=O)cc(NC(=O)Cc3ccccc3Cl)cc2n1 [Compound 7-A, 2-(2-chlorophenyl)-N-(2-isobutyl-4-sulfamoyl-2H-indazol-6-yl)acetamide] | 4.8 | 0.988 | – |
| NS(=O)(=O)c1cc(NC(=O)Cc2ccccc2Cl)cc2c1cnn2CC(F)F [Compound 12-B, 2-(2-chlorophenyl)-N-(1-(2,2-difluoroethyl)-4-sulfamoyl-1H-indazol-6-yl)acetamide] | 21.8 | 0.301 | – |
| NS(=O)(=O)c1cc(NC(=O)Cc2ccccc2Cl)cc2nn(CC3CCC3)cc12 [Compound 24-A, 2-(2-chlorophenyl)-N-(2-(cyclobutylmethyl)-4-sulfamoyl-2H-indazol-6-yl)acetamide] | 1.6 | 1.08 | – |
| NS(=O)(=O)c1cc(NC(=O)Cc2ccccc2Cl)cc2c1CN(Cc1ccc(F)cc1)C2 [Compound 132, 2-(2-chlorophenyl)-N-(2-(4-fluorobenzyl)-7-sulfamoyliodo-5-yl)acetamide] | – | – | 200 to 5000 |
| NS(=O)(=O)c1cc(NC(=O)CC2CCCCC2O)cc2nn(C(F)F)cc12 (centres unmarked) [Compound 136, N-(2-(difluoromethyl)-4-sulfamoyl-2H-indazol-6-yl)-2-(2-hydroxycyclohexyl)acetamide] | – | – | 200 to 5000 |
| COc1ccc(Cn2cc3c(S(C)(=N)=O)cc(NC(=O)Cc4ccccc4Cl)cc3n2)cc1 (centres unmarked) [Compound 137, 2-(2-chlorophenyl)-N-(2-(4-methoxybenzyl)-4-(S-methylsulfonylimino)-2H-indazol-6-yl)acetamide] | – | – | 200 to 5000 |
| C[S@](=N)(=O)c1cc(NC(=O)Cc2ccccc2Cl)cc2nn(Cc3ccc(F)cc3)cc12 [Compound 138, (S)-2-(2-chlorophenyl)-N-(2-(4-fluorophenylmethyl)-4-(S-methylsulfonimidoyl)-2H-indazol-6-yl)acetamide] | – | – | 200 to 5000 |
| C[S@@](=N)(=O)c1cc(NC(=O)Cc2ccccc2Cl)cc2nn(Cc3ccc(F)cc3)cc12 [Compound 138A, (R)-2-(2-chlorophenyl)-N-(2-(4-fluorophenylmethyl)-4-(S-methylsulfonimidoyl)-2H-indazol-6-yl)acetamide] | – | – | 200 to 5000 |
| Cc1ccccc1CC(=O)Nc1cc([S@@](C)(=N)=O)c2cn(Cc3ccc(F)cc3)nc2c1 [Compound 139, (S)—N-(2-(4-fluorophenylmethyl)-4-(S-methylsulfonimidoyl)-2H-indazol-6-yl)-2-(o-phenylmethyl)acetamide] | – | – | 200 to 5000 |
| Cc1ccccc1CC(=O)Nc1cc([S@](C)(=N)=O)c2cn(Cc3ccc(F)cc3)nc2c1 [Compound 139A] | – | – | 200 to 5000 |
| COc1ccccc1CC(=O)Nc1cc(S(C)(=N)=O)c2cn(Cc3ccc(F)cc3)nc2c1 (centres unmarked) [Compound 140, N-(2-(4-fluorophenylmethyl)-4-(S-methylsulphonimidoyl)-2H-indazol-6-y)-2-(2-methoxyphenyl)acetamide] | – | – | 200 to 5000 |
| N-(2-(4-chlorobenzyl)-4-sulfamoyl-2H-indazol-6-yl)-2-(2-chlorophenyl)acetamide [Compound 89] | – | – | ≤ 10 |
| N-(4-(N,N-bis(4-methoxybenzyl)sulfamoyl)-1-(4-(trifluoromethyl)benzyl)-1H-indazol-6-yl)-2-(2-chlorophenyl)acetamide [Compound 90A] | – | – | ≤ 10 |
| N-(4-(N,N-bis(4-methoxybenzyl)sulfamoyl)-1-(4-fluorobenzyl)-1H-indazol-6-yl)-2-(2-chlorophenyl)acetamide [Compound 88A] | – | – | ≤ 10 |

Continued, values first:

| IC50 ([1]; numeric values) [nM] | half-life [2] [h] | IC50 ([1]; class symbols) [nM] | Compound |
| --- | --- | --- | --- |
| – | 1.23 | ≤ 10 | CCn1ncc2c(S(N)(=O)=O)cc(NC(=O)Cc3ccccc3Cl)cc21 [Compound 4-B, (4-sulfonamide-6-N-(2-chlorophenylacetyl)-1-ethyl)-indazole] |
| – | 0.408 | 10 to 50 | CC(C)C(C)n1cc2c(S(N)(=O)=O)cc(NC(=O)Cc3ccccc3Cl)cc2n1 (centres unmarked) [Compound 10, 2-(2-chlorophenyl)-N-(2-(3-methylbutan-2-yl)-4-sulfamoyl-2H-indazol-6-yl)acetamide] |
| – | 1.61 | ≤ 10 | C=CCn1ncc2c(S(N)(=O)=O)cc(NC(=O)Cc3ccccc3Cl)cc21 [Compound 14-B] |
| – | 0.748 | ≤ 10 | NS(=O)(=O)c1cc(NC(=O)Cc2ccccc2Cl)cc2nn(CC3CCCC3)cc12 [Compound 31-A, 2-(2-chlorophenyl)-N-(2-(cyclopentylmethyl)-4-sulfamoyl-2H-indazol-6-yl)acetamide] |
| – | 1.44 | 10 to 50 | COc1cccc(Cn2cc3c(S(N)(=O)=O)cc(NC(=O)Cc4ccccc4Cl)cc3n2)c1 [Compound 36-A, 2-(2-chlorophenyl)-N-(2-(3-methoxybenzyl)-4-sulfamoyl-2H-indazol-6-yl)acetamide] |
| – | 0.962 | 10 to 50 | COc1cccc(Cn2ncc3c(S(N)(=O)=O)cc(NC(=O)Cc4ccccc4Cl)cc32)c1 [Compound 36-B, 2-(2-chlorophenyl)-N-(1-(3-methoxybenzyl)-4-sulfamoyl-1H-indazol-6-yl)acetamide] |
| – | 1.32 | 10 to 50 | COc1ccccc1Cn1cc2c(S(N)(=O)=O)cc(NC(=O)Cc3ccccc3Cl)cc2n1 [Compound 37-A, 2-(2-chlorophenyl)-N-(2-(2-methoxybenzyl)-4-sulfamoyl-2H-indazol-6-yl)acetamide] |
| – | – | 200 to 5000 | COCCOc1cccc(CC(=O)Nc2cc(S(N)(=O)=O)c3cn(C(F)F)nc3c2)c1 [Compound 116, N-(2-(difluoromethyl)-4-sulfamoyl-2H-indazol-6-yl)-2-(3-(2-methoxyethoxy)phenyl)acetamide] |
| – | – | 200 to 5000 | NS(=O)(=O)c1cc(NC(=O)Cc2ccccc2Cl)cc2nn(CCN3CCOCC3)cc12 [Compound 118, 2-(2-chlorophenyl)-N-(2-(2-morpholinoethyl)-4-sulfamoyl-2H-indazol-6-yl)acetamide] |
| – | – | 200 to 5000 | NS(=O)(=O)c1cc(NC(=O)Cc2ccccc2Cl)cc2c1cnn2CCN1CCOCC1 [Compound 118A, 2-(2-chlorophenyl)-N-(1-(2-morpholinoethyl)-4-sulfamoyl-1H-indazol-6-yl)acetamide] |
| – | – | 200 to 5000 | CC1(N2Cc3cc(NC(=O)Cc4ccccc4Cl)cc(S(N)(=O)=O)c3C2)COC1 [Compound 130, 2-(2-chlorophenyl)-N-(2-(3-methyloxetan-3-yl)-7-sulfamoylisoindolin-5-yl)acetamide] |
| – | – | 10 to 50 | NS(=O)(=O)c1cc(NC(=O)Cc2ccccc2Cl)cc2c1CN(C(=O)c1ccc(F)cc1)C2 [Compound 131, 2-(2-chlorophenyl)-N-(2-(4-fluorobenzoyl)-7-sulfamoylisoindolin-5-yl)acetamide] |
| – | – | 50 to 200 | NS(=O)(=O)c1cc(NC(=O)Cc2ccccc2Cl)cc2c1cnn2CC1CCOCC1 [Compound 141A, 2-(2-chlorophenyl)-N-(4-sulfamoyl-1-((tetrahydro-2H-pyran-4-yl)methyl)-1H-indazol-6-yl)acetamide] |
